The record followed here is patent US20240299328A1, “COMPOSITIONS COMPRISING 15-HEPE AND METHODS OF TREATING AND/OR PREVENTING HEMATOLOGIC DISORDERS AND RELATED DISEASES” (Afimmune Limited, priority 2023, published 2024).

Series [1] relates to adhesion of SCD patient RBCs to heme-activated HUVECs. As to the kind of experiment: Endothelialized microfluidic system: SCD patient RBC adhesion to heme-activated HUVECs. The series is classed as cell-based, human. As to conditions: 6 hours, n=7; for adhesion of RBCs to heme-activated endothelium: treatment of RBCs; for adhesion of SCD patient RBCs to endothelium: treatment of heme-activated HUVECs. As to the method:
Whole blood samples were collected from 7 SCD subjects with HbSS genotype at University Hospitals Cleveland Medical Center, Cleveland, OH, USA. RBCs were isolated after centrifugation of whole blood collected in EDTA and were resuspended in basal cell culture medium (EBM; Lonza, Morristown, NJ, USA) with 10 mM of HEPES to reach 20% hematocrit. Human umbilical vein endothelial cells (HUVECs; Lonza, Morristown, NJ, USA) were seeded within the microfluidic channels and cultured for at least 72 hours at 15 dyne/cm2 prior to experiments. Tested concentrations of 15(S)-HEPE were selected based on clinical pharmacokinetics for 15(S)-HEPE at 2 g/day and 4 g/day Epeleuton doses. Incubation of RBCs or HUVECs with 15(S)-HEPE was conducted at 37° C. for 6 hours. In one experiment 15(S)-HEPE-treated tor vehicle-treated RBCs flowed on untreated HUVECs and in the second experiment untreated RBCs flowed on 15(S)-HEPE-treated or vehicle-treated […]. In both cases a short-term acute activation was conducted where RBCs were supplemented with 40 μM heme and injected through the microfluidic channels for 15 minutes. Non-adherent RBCs were washed with basal cell culture medium. Phase-contrast images of the remaining RBCs were recorded using inverted microscope (DMi8 Leica Microsystems Inc. Deerfield, IL, USA) and the images were analyzed based on previous published methods. Statistical significance was assessed using paired t-test

For series [2], the system named is TGF-β signaling in HepG2 cells. As to the kind of experiment: TGF-β-induced EMT protein expression and type II TGF-β receptor in HepG2 cells. The class given is cell-based, human. As to the method:
The effects of 15-HEPE on TGF-β-induced signaling and cellular responses were determined. To test the effect of 15-HEPE on TGF-β-induced signaling, the activities of 15-HEPE to regulate TGF-β-stimulated Smad2 phosphorylation and nuclear translocation, both of which are key signaling events leading to TGF-β-induced cellular responses, were tested. One important biological activity of TGF-β is transcriptional activation of genes responsible for epithelial-mesenchymal transition (EMT), which is a crucial event in wound healing, tissue fibrosis, and cancer progression. The effect of 15-HEPE on TGFβ-induced epithelial mesenchymal transition related proteins (such as fibronectin, PAI-1, and N-cadherin etc.) expression in HepG2 and LXR cells were assessed. HepG2 cells (human hepatoma cell line) were treated in increasing doses of 15-HEPE stage II in DMEM containing 0.1% of FBS for 1 hour and continually stimulated with or without 200 picomolar (pM) of TGF-β for 48 hours. […] HepG2 cells (human hepatoma cell line) were treated in increasing doses of 15-HEPE stage II in DMEM containing 0.1% of FBS for 1 hour and continually stimulated with or without 200 picomolar (pM) of TGF-β for 48 hours. The two panels shown in FIG. 18A are two separate experiments run under the same experimental conditions.

Series [3] relates to TGF-β-stimulated intracellular signaling (SMAD2/3 phosphorylation) in LX2 cells. Nature of the series: TGF-β-stimulated SMAD2/3 phosphorylation in LX2 liver stellate cells. The class given is cell-based, human. Conditions: 0 μM to 100 μM for 24 hours, then 30 min TGF-β stimulation.
The test system of series [4] is TβR-I, TβR-II, TβR-III, EGFR and caveolin-1 in Mv1Lu cells. As to the kind of experiment: Sucrose density gradient analysis of TGF-β receptors in Mv1Lu plasma membranes. The class given is cell-based, mink. As to the method:
The sucrose gradient fractions were then analyzed by Western blot analysis using anti-TβR-I (type I TGF-β receptor), anti-TβR-II (type II TGF-β receptor), anti-TβR-III (type III TGF-β receptor, betaglycan), anti-EGFR (epidermal growth factor receptor), and anti-caveolin-1 antibodies.
The sucrose gradient fractions were then analyzed by Western blot analysis using anti-TβR-I (type I TGF-β receptor-FIG. 18C), anti-TβR-II (type II TGF-β receptor-FIG. 18D), anti-TβR-III (type III TGF-β receptor, betaglycan-FIG. 18E), anti-EGFR (epidermal growth factor receptor-FIG. 18F), and anti-caveolin-1 antibodies (FIG. 18G).

The subject of series [5] is UUO mice. The series is classed as in vivo. As to the method: UUO Surgery: On day 0 of the study, UUO surgery was performed on mice under pentobarbital sodium anesthesia. The mouse's hair was first shaved and then abdomen cut open to exteriorize the mouse's left ureter. The ureter was ligated 4-0 nylon sutures at two points. The mouse's peritoneum and skin were then closed with sutures, and the mouse transferred to a clean cage until recovered from the anesthesia. Sham operated mice had their left ureter exposed but not ligated. […]
Animals: Seven-week-old female C57BL/6 mice (i.e., animals) were obtained and were housed and fed with a normal diet under controlled conditions. The animals were maintained in a specific-pathogen free (SPF) facility under controlled conditions of temperature (e.g., 23±2° C.), humidity (e.g., 45±10%), lighting (e.g., 12-hour artificial light and dark cycles; light from 8:00 to 20:00) and air exchange. A high pressure was maintained in the experimental room to prevent contamination of the facility. The animals were housed in TPX cages with a maximum of 4 mice per cage. Sterilized Paper-Clean was used for bedding and replaced once a week. Sterilized solid normal diet was provided ad libitum, being placed in a metal lid on the top of the cage. Pure water was also provided ad libitum from a water bottle equipped with a rubber stopper and a sipper tube. Water bottles were replaced once a week, cleaned, and sterilized in an autoclave and reused. Mice were identified by ear punch and each cage was labeled with a specific identification code.
Animal Monitoring and Sacrifice: The viability, clinical signs and behavior for the mice were monitored daily. Individual body weight was measured daily before treatment during the treatment period. […] The animals were sacrificed by exsanguination through direct cardiac puncture under isoflurane anesthesia at Day 14.

Series [6] relates to UUO mice. As to the kind of experiment: UUO study: Sirius red staining, kidney fibrosis area. The series is classed as in vivo. As to the method: Histopathological analysis: To visualize collagen deposition, kidney sections were stained using picro-Sirius red solution. For quantification of interstitial fibrosis area, bright field images in the corticomedullary region were captured using a digital camera at 200-fold magnification, and the positive areas in 5 fields/section were measured.

Series [7] has as its system α-SMA, TIMP-1, TGF-β and Collagen Type 1 mRNA. Nature of the series: UUO study: quantitative RT-PCR of kidney. The class given is in vivo. Conditions: UUO mice kidney, normalized to 36B4, Day 14, mean ± SD. The protocol:
Quantitative RT-PCR: Total ribonucleic acid (RNA) was extracted from kidney samples using RNAiso. One μg of RNA was reverse-transcribed using a reaction mixture containing […] (mM) of magnesium chloride (MgCl2), 40 U RNase inhibitor, 0.5 mM dNTP, 6.28 µM random hexamer, 5× first strand buffer, 10 mM dithiothreitol and 200 U MMLV-RT in a final volume of 20 μL. The reaction was carried out for 1 hour at 37° C., followed by 5 minutes at 99° C. Real-time PCR was performed using real-time PCR DICE and TB Green™ Premix Ex Taq™ II. To calculate the relative […] (mRNA) expression level, the expression of each gene (e.g., α-SMA, TIMP-1, TGF-β and Collagen Type 1) was normalized to that of reference gene 36B4 (gene symbol: Rplp0). Information regarding the PCR-primer sets and the plate layout are described in Tables 1 and 2.

Setting [8] is: HepG2 cells, increasing doses, 1 hour, then with or without 200 pM TGF-β for 48 hours.
Setting [9] is: 5 mg/kg PO QD Day 0-13, Day 14, mean ± SD.
The mark [10] stands for this setting: 50 mg/kg PO QD Day 0-13, Day 14, mean ± SD.
Where [11] appears, read: 250 mg/kg PO QD Day 0-13, Day 14, mean ± SD.

Where two headings read alike, the source gives them in different places.

On to `CC/C=C\C[C@H](O)/C=C/C=C\C/C=C\C/C=C\CCCC(=O)O` [15(S)-HEPE, 15(S)-hydroxy-(5Z,8Z,11Z,13E,17Z)-eicosapentaenoic acid], for which the “adhesion of RBCs to heme-activated endothelium” value was “significantly decreased” in series [1] (50 µM, p=0.01) and “significantly decreased” in series [1] (100 µM, p=0.001). Also, the “adhesion of SCD patient RBCs to endothelium” value in series [1] (50 μM, p=0.03) is “significantly decreased”; in series [1] (100 μM, p=0.01), “significantly decreased”.

Take `CC/C=C\CC(O)/C=C/C=C\C/C=C\C/C=C\CCCC(=O)O` (stereo not shown) [15-HEPE, 15-hydroxy-eicosa-5Z,8Z,11Z,13E, 17Z-pentaenoic acid]: in series [2] (setting [8]), the “TGF-β induced epithelial mesenchymal transition (EMT) (pro-fibrotic) protein production” value is on record as “blocked” and the “type II TGF-β receptor” value is on record as “induced degradation”. Further, in series [2] (liver cell lines (HepG2, LX2)), the TGF-β signaling entry is reported as “directly inhibit”. Besides, the “TGF-β-stimulated intracellular signaling (SMAD2/3 phosphorylation)” value in series [3] is recorded as “inhibits”. Besides, in series [4] (100 μM, 0, 1, 4, 24 hours), the “localization and abundance of TβR-III, EGFR and caveolin-1” value is on record as “did not change”. Further, the “abundance of TβR-I proteins” value in series [4] (100 μM, 37° C., 0, 1, 4, 24 hours) is on record as “did not affect the abundance”. Besides, in series [4] (100 μM, 24 hours treatment), the TβR-II degradation result is listed as “induce degradation” and the “translocation of TβR-I to lipid-raft” value is “induced translocation”. For the same compound, the TβR-II translocation entry in series [4] (100 μM, from 1 to 4 hours) was “induced TβR-II translocation”.

As for `CCCCCC(O)/C=C/C=C\C/C=C\CCCCCCC(=O)O` (stereo not shown) [DS109, 15-hydroxy-eicosa-8Z, 11Z, 13E-trienoic acid], in the series on UUO mice [5] (setting [9]), the “Body Weight” value stood at 19.1 ± 0.9 g, the “Left Kidney Weight” value came out at 533 ± 138 mg, the “Left Kidney-to-Body Weight Ratio” value is recorded as 2.79 ± 0.65% and the “Right Kidney Weight” value was determined as 137 ± 7 mg. For the same compound, in the series on UUO mice [5] (setting [9]), the “Right Kidney-to-Body Weight Ratio” value came out at 0.71 ± 0.04%. Besides, in the series on UUO mice [5] (setting [10]), the “Body Weight” value is given as 18.6 ± 0.6 g, the “Left Kidney Weight” value is 523 ± 91 mg, the “Left Kidney-to-Body Weight Ratio” value was 2.83 ± 0.50% and the “Right Kidney Weight” value amounted to 135 ± 6 mg. For the same compound, the “Right Kidney-to-Body Weight Ratio” value in the series on UUO mice [5] (setting [10]) amounted to 0.73 ± 0.05%. For the same compound, in the series with UUO mice [5] (setting [11]), the “Body Weight” value was found to be 18.6 ± 0.7 g, the “Left Kidney Weight” value was found to be 425 ± 105 mg, the “Left Kidney-to-Body Weight Ratio” value is listed as 2.26 ± 0.53% and the “Right Kidney Weight” value was found to be 130 ± 13 mg. The “Right Kidney-to-Body Weight Ratio” value in the series with UUO mice [5] (setting [11]) was 0.70 ± 0.05%. Moreover, the “Sirius red-positive area (%)_Median” value in the series on UUO mice [6] (5 mg/kg PO QD Day 0-13, Day 14, median) came out at 3.22 ± 1.47%. The “Sirius red-positive area (%)_Median” value in the series with UUO mice [6] (50 mg/kg PO QD Day 0-13, Day 14, median) is listed as 3.28 ± 1.41%. In addition, the “Sirius red-positive area (%)_Median” value in the series on UUO mice [6] (250 mg/kg PO QD Day 0-13, Day 14, median) turned out to be 3.76 ± 0.81%. In addition, in series [7] (5 mg/kg PO QD Day 0-13), the “Alpha-SMA mRNA expression level” value came to 3.87 ± 0.82, the “Collagen Type 1 mRNA expression level” value was 10.76 ± 1.45, the “TGF-β mRNA expression level” value worked out at 4.29 ± 0.93 and the “TIMP-1 mRNA expression level” value is 153.60 ± 37.12. In series [7] (50 mg/kg PO QD Day 0-13), the “Alpha-SMA mRNA expression level” value came out at 4.61 ± 3.15, the “Collagen Type 1 mRNA expression level” value came to 15.23 ± 11.52, the “TGF-β mRNA expression level” value amounted to 6.01 ± 4.77 and the “TIMP-1 mRNA expression level” value was determined as 167.70 ± 122.60. In series [7] (250 mg/kg PO QD Day 0-13), the “Alpha-SMA mRNA expression level” value is listed as 4.85 ± 1.22, the “Collagen Type 1 mRNA expression level” value is on record as 13.88 ± 1.91, the “TGF-β mRNA expression level” value stood at 5.48 ± 0.36 and the “TIMP-1 mRNA expression level” value was determined as 180.90 ± 23.12.
